Source: patent US4048299A, “Anticaries confectionaries and oral health products” (William Wrigley, Jr. Co., priority 1970, dated 1977)

What was measured:
[1] = test system: Streptococcus spp. FA-1; assay: Growth inhibition of oral microorganisms in vitro, pour plates; format: cell-based; conditions: Table IX; for Bacterial Population, Experimental: control 2 × 10^8 to 5 × 10^8; for Inhibition (growth): pour plates incubated 48 - 72 hours
Experimental: (§1) (a)Determined on freshly grown pure cultures. Pour plates were incubated

[2] = test system: L. casei; assay: as above; format: cell-based, Lactobacillus casei; conditions: Table IX; for Bacterial Population, Experimental: control 8 × 10^8 to 1 × 10^9; for Inhibition (growth): pour plates incubated 48 - 72 hours
Experimental: as §1

[3] = test system: Lactobacillus casei and Streptococcus sp. FA-1; assay: Acid-production inhibition by broth-tube assay, 0.1 percent of compound; format: cell-based; conditions: for inhibition at 0.1 %: Table X, 0.1 percent of compound, read-out: Activity, Acid-Production Inhibition%
Experimental: ^(a) Activity was measured by broth-tube assay to determine percent
(§2) acid-production inhibition obtained by Lactobacillus casei and
Streptococcus sp. FA-1 in the presence of 0.1 percent of compound.
^(a) Activity was measured by broth-tube assay to determine percent o
as §2
Streptococcus sp. FA-1 in the presence of 0.1% of compound. Symbols

[4] = In vivo caries evaluation, laboratory animals (summary); conditions: one percent level in diet
Excerpt: (§3) Standard laboratory techniques were used to complie the data presented. In each case the aldehyde was incorporated into each specimen's food in a one percent, by weight, quantity, over a period of several weeks. In all cases, caries reduction was noted.
(§4) The aldehydes tested in vivo were pyruvaldehyde, d,1-glyceraldehyde, crystalline dimer, glycolaldehyde, octanaldehyde, nonanaldehyde, decanaldehyde, undecylenic aldehyde, and lauric aldehyde. The polyaldehydes tested were dialdehyde starch, dialdehyde starch 50 percent oxidized, dialdehyde starch 90 percent oxidized, and dialdehyde galactomannan gum.

[5] = In vivo caries evaluation, Osborne-Mendel strain 1 rat; set-up: species or system rat (Osborne-Mendel strain 1); Caries Score, Mean Incidence / Caries Score, Mean Extent: scale not given here; conditions: Table II, 90 days; for Caries Score, Mean Incidence / Caries Score, Mean Extent: 1 percent in diet; for Caries Score, Mean Incidence: RCD control 19.0 (octan-), 14.1 (nonan-), 17.6 (decan-), 22.3 (undecylenic); for Caries Score, Mean Extent: RCD control 49.6 (octan-), 34.3 (nonan-), 46.0 (decan-), 54.6 (undecylenic); for Caries Extent Reduction, statistical evaluation / Caries Incidence Reduction, statistical evaluation: Student's test, 95 percent confidence limit
Excerpt: as §3, §4
(§5) ^(a) Agents were incorporated in the diet at a 1 percent level.

[6] = In vivo caries evaluation, Osborne-Mendel strain 2 rat; set-up: species or system rat (Osborne-Mendel strain 2); Caries Score, Mean Incidence / Caries Score, Mean Extent: scale not given here; conditions: Table II, 90 days
Excerpt: as §3, §4, §5

[7] = In vivo caries evaluation, albino hamster; conditions: Table II, 59 days
Excerpt: as §3, §4, §5

[8] = test system: oral microorganisms; assay: Acid production inhibition in vitro (summary); format: cell-based; conditions: in words, summary of tables
Experimental: (§6) Other in vitro evaluations utilized a broth tube analysis of representative anticaries aldehydes incorporated in the vehicles of this invention against cultures of acid producing microorganisms normally present in the mouth. Standard laboratory procedures were utilized throughout to evaluate the acid production inhibition and growth inhibition over the incubation time of up to 24 hours.

[9] = test system: oral microorganisms; assay: Growth inhibition in vitro (summary); format: cell-based; conditions: in words, summary of tables
Experimental: as §6

[10] = Student's test, 95 percent confidence limit

CCCCCCCCCC(C)C=O (stereo not drawn) [Methylnonylacetaldehyde]
Bacterial Population, Experimental [1]: 0 | Inhibition (growth) [1]: 100% | Bacterial Population, Experimental [2]: < 1 × 10^3 | Inhibition (growth) [2]: > 99.99% | inhibition at 0.1 % [3]: 90 to 98%

CCCCCCCCC=O [Nonanaldehyde]
Bacterial Population, Experimental [1]: 0 | Inhibition (growth) [1]: 100% | Anticaries effect in laboratory animals [4]: significant anticaries activity | Bacterial Population, Experimental [2]: 4 × 10^4 | Inhibition (growth) [2]: > 99.99% | Caries Score, Mean Incidence [5]: 5.1 | Caries Score, Mean Extent [5]: 10.2 | Caries Extent Reduction, statistical evaluation [5]: Significant | Caries Incidence Reduction, statistical evaluation [5]: Significant | inhibition at 0.1 % [3]: 99 to 100%

CCCCCCCC=O [Octanaldehyde]
Bacterial Population, Experimental [1]: 9 × 10^3 | Inhibition (growth) [1]: > 99.99% | Caries Score, Mean Incidence ([6]; 1 percent in diet, L2000 control 17.4): 2.9 | Caries Score, Mean Extent ([6]; 1 percent in diet, L2000 control 31.3): 4.1 | Caries Extent Reduction, statistical evaluation [6, 10]: Significant | Caries Incidence Reduction, statistical evaluation [6, 10]: Significant | Anticaries effect in laboratory animals [4]: significant anticaries activity | Bacterial Population, Experimental [2]: 2 × 10^7 | Inhibition (growth) [2]: 97% | Caries Score, Mean Incidence [5]: 9.8 | Caries Score, Mean Extent [5]: 20.4 | Caries Extent Reduction, statistical evaluation [5]: Significant | Caries Incidence Reduction, statistical evaluation [5]: Significant | Caries Score, Mean Incidence ([7]; 1 percent in diet, L2000 control 39.3): 18.6 | Caries Score, Mean Extent ([7]; 1 percent in diet, L2000 control 117.6): 53.8 | Caries Extent Reduction, statistical evaluation [7, 10]: Significant | Caries Incidence Reduction, statistical evaluation [7, 10]: Significant | inhibition at 0.1 % [3]: 99 to 100%

O=CCCC=O [Succinic dialdehyde]
Activity, Acid-Production Inhibition, % ([3]; Table XII, 0.1% of compound): ++++ (99 to 100)

CC=CCCCCCCCC=O [Undecylenic aldehyde]
Bacterial Population, Experimental [1]: 0 | Inhibition (growth) [1]: 100% | Anticaries effect in laboratory animals [4]: significant anticaries activity | Bacterial Population, Experimental [2]: 1 × 10^2 | Inhibition (growth) [2]: > 99.99% | Caries Score, Mean Incidence [5]: 7.4 | Caries Score, Mean Extent [5]: 16.4 | Caries Extent Reduction, statistical evaluation [5]: Significant | Caries Incidence Reduction, statistical evaluation [5]: Significant | inhibition at 0.1 % [3]: 99 to 100%

CCCCCCCCCCC=O [Undecylic aldehyde]
Bacterial Population, Experimental [1]: 2 × 10^3 | Inhibition (growth) [1]: > 99.99% | Bacterial Population, Experimental [2]: 5 × 10^4 | Inhibition (growth) [2]: > 99.99% | inhibition at 0.1 % [3]: 99 to 100%

CCCCCCC=O [n-Heptaldehyde]
Bacterial Population, Experimental [1]: 3 × 10^8 | Inhibition (growth) [1]: Insignificant | Acid Production Inhibition [8]: excellent acid production inhibition | Bacterial Population, Experimental [2]: 1 × 10^9 | Inhibition (growth) [2]: None | inhibition at 0.1 % [3]: 75 to 89% | Growth Inhibition [9]: little or no growth inhibition

CCCCCC=O [n-Hexaldehyde]
Bacterial Population, Experimental [1]: 4 × 10^8 | Inhibition (growth) [1]: Insignificant | Acid Production Inhibition [8]: excellent acid production inhibition | Bacterial Population, Experimental [2]: 1 × 10^9 | Inhibition (growth) [2]: None | inhibition at 0.1 % [3]: 25 to 74% | Growth Inhibition [9]: little or no growth inhibition
